In one data set the test system is male beagle dogs. As to the kind of experiment: Acute toxicity study in dogs, single oral dose. Format: in vivo. How it is done: Acute toxicity studies were also performed by orally administering a single dose of compound (2) formulated in water to groups of male beagle dogs at doses from about 25 mg-eq/kg to about 150 mg-eq/kg.
Another data set relates to male rats. As to the kind of experiment: Multiple dose study in rats, five days, oral gavage once a day. It is filed as in vivo. The conditions noted are these: 49 to 97 mg-eq/kg orally once a day for five days. As to the method: Multiple dose studies in rats were performed by orally administering compound (2) formulated in water to groups of male rats at doses of 49 mg-eq/kg to 97 mg-eq/kg for a period of five days, by oral gavages administered once a day.

Another data set has as its system rats. As to the kind of experiment: Acute toxicity study in rats, single oral dose. Format: in vivo. How it is done:
Acute toxicity studies in rats were undertaken to assess the tolerance of a single oral dose of compound (2) formulated in water. […] Complete recovery from hypoactivity, sedation, and anesthesia occurred in all rats within about 8 hours after dose. Doses above about 1552 mg-eq/kg (about 800 mg-eq/kg of propofol) were not tested.

The conditions of data set [1]: orally administered as a homogeneous liquid suspension, relative to an equivalent intravenous dose of propofol; cited from earlier work.
For data set [2] the following is noted: oral dosing, rats; cited from earlier work.

For `CC(C)c1cccc(C(C)C)c1OC(=O)OC[C@H](N)C(=O)O` (stereo in doubt) [compound (2), 2-amino-3-(2,6-diisopropyl-phenoxycarbonyloxy)-propanoic acid], in the data set with male beagle dogs (about 25 mg-eq/kg to about 150 mg-eq/kg, in water), the “Tolerance of a single oral dose” value was “well tolerated”. The Sedation or anesthesia result with male beagle dogs (single oral dose about 25 to about 150 mg-eq/kg) is “No sedation or anesthesia was observed”. Also, in the data set with male rats, the Adverse effects entry is reported as “No adverse effects were observed”, the Sedation or anesthesia result is “No sedation or anesthesia was observed” and the “Tolerance of multiple doses” value was “well tolerated”. In the data set on rats (all rats, single oral dose), the “Time to complete recovery from hypoactivity, sedation, and anesthesia after dose” value is ≤ 8 h. The “Tolerance of a single oral dose” value in the data set on rats (rats, about 49 mg-eq/kg to about 1552 mg-eq/kg of administered compound, in water) was “well tolerated”. For the same compound, the Hypoactivity entry in the data set with rats (rats, single oral dose about 49 up to about 388 mg-eq/kg, within about 30 minutes of dose, maintained up to 4 hours post dose) is “Transient hypoactivity was observed”. Besides, in the data set with rats (rats, single oral dose about 582 up to about 970 mg-eq/kg, within about 1.5 hours of dose, lasted up to 4 hours post dose), the Sedation entry was “Sedation was observed”. Also, the Anesthesia result with rats (rats, single oral dose about 1164 up to about 1552 mg-eq/kg, within about 1 hour of dose, lasted up to about 2 hours post dose) is given as “Anesthesia was observed”.

For the compound `CC(C)c1cccc(C(C)C)c1O` [propofol, 2,6-diisopropylphenol], the Oral bioavailability result in data set [1] is on record as “less than 5%”. The “Administered drug undergoing first pass metabolism” value in data set [2] is “approximately 90%”.

Source of the values: patent US20080161400A1, “USE OF FORMS OF PROPOFOL FOR TREATING DISEASES ASSOCIATED WITH OXIDATIVE STRESS” (XenoPort, Inc., priority 2006, published 2008).
